According to patent publication US7358042B2, “Triosephosphate isomerase directed diagnostics and therapeutics for multidrug resistant neoplastic disease” (priority 2003, dated 2008):

How the values were obtained:
[1] = test system: antigen-positive E3 cell line; settings: read-out: IC50 (cytotoxicities); cited from earlier work
[2] = test system: hematological tumor cells; test: Triosephosphate isomerase vaccination of mice injected with hematological tumor cells; format: in vivo; settings: mice vaccinated prior to injection of the tumor cells versus not vaccinated
[3] = test system: E3 target cells; settings: cited from earlier work

Compound: O=c1[nH]c(=O)n([C@H]2C[C@H](O)[C@@H](CO)O2)cc1F [FUDR, 5-fluoro-2′-deoxyuridine]
- IC50 [1]: 0.4 nM

Compound: triosephosphate isomerase: purified full length murine triosephosphate isomerase protein used as vaccine antigen, may be administered with an adjuvant
- tumor size [2]: smaller

Compound: CC(=O)[C@]1(O)Cc2c(O)c3c(c(O)c2[C@@H](O[C@H]2C[C@H](N)[C@H](O)[C@H](C)O2)C1)C(=O)c1ccccc1C3=O [Ida, Idarubicin]
- IC50 [3]: 120 nM
